In ChEMBL document CHEMBL4257508, “The semi-synthesis, biological evaluation and docking analysis of the oxime, hydrazine and hydrazide derivatives of platensimycin” (Medchemcomm, 2018):
Converted amounts (≈) assume the structure as drawn.

Experiments:
Klebsiella pneumoniae = assay: Antibacterial activity against Klebsiella pneumoniae after 16 hrs by agar dilution method; format: functional
Staphylococcus aureus [1] = assay: Antibacterial activity against Staphylococcus aureus ATCC 29213 after 16 hrs by agar dilution method; format: functional; details: ATCC 29213, 16 h
Staphylococcus aureus [2] = assay: Antibacterial activity against methicillin-resistant Staphylococcus aureus after 16 hrs by agar dilution method; format: functional
Staphylococcus aureus [3] = assay: Antibacterial activity against methicillin-sensitive Staphylococcus aureus after 16 hrs by agar dilution method; format: functional
Escherichia coli = assay: Antibacterial activity against Escherichia coli after 16 hrs by agar dilution method; format: functional
[4] = Stability of the compound in LB agar after 16 hrs by UPLC analysis; format: physicochemical

Row | SMILES | MIC (Klebsiella pneumoniae) | MIC (Staphylococcus aureus [1]) | MIC (Staphylococcus aureus [2]) | MIC (Staphylococcus aureus [3]) | MIC (Escherichia coli) | Stability [4]
1 | C[C@]12C[C@@]34CCC(=O)[C@@](C)(CCC(=O)Nc5c(O)ccc(C(=O)O)c5O)[C@@H]3[C@H](C[C@@H]1C4)O2 | > 64 µg/mL | 2 µg/mL (≈ 4.51 µM) | 2 µg/mL (≈ 4.51 µM) | 2 µg/mL (≈ 4.51 µM) | > 64 µg/mL | –
2 | C[C@]12C[C@@]34C=CC(=O)[C@@](C)(CCC(=O)Nc5c(O)ccc(C(=O)O)c5O)[C@@H]3[C@H](C[C@@H]1C4)O2 | – | 0.5 µg/mL (≈ 1.13 µM) | 1 µg/mL (≈ 2.27 µM) | 0.5 µg/mL (≈ 1.13 µM) | – | –
3 | CC(C)(C)OC(=O)N/N=C1\C=C[C@]23C[C@H]4C[C@H](O[C@@]4(C)C2)[C@H]3[C@]1(C)CCC(=O)Nc1c(O)ccc(C(=O)O)c1O | > 64 µg/mL | – | – | 16 µg/mL (≈ 28.8 µM) | > 64 µg/mL | Stable
4 | C[C@]12C[C@@]34C=C/C(=N\O)[C@@](C)(CCC(=O)Nc5c(O)ccc(C(=O)O)c5O)[C@@H]3[C@H](C[C@@H]1C4)O2 | > 64 µg/mL | 32 µg/mL (≈ 70.1 µM) | 32 µg/mL (≈ 70.1 µM) | 16 µg/mL (≈ 35 µM) | > 64 µg/mL | –
5 | COc1ccc(O)c(C(=O)N/N=C2\C=C[C@]34C[C@H]5C[C@H](O[C@@]5(C)C3)[C@H]4[C@]2(C)CCC(=O)Nc2c(O)ccc(C(=O)O)c2O)c1 | > 64 µg/mL | – | – | 16 µg/mL (≈ 26.4 µM) | > 64 µg/mL | –
6 | C[C@@]1(CCC(=O)Nc2c(O)ccc(C(=O)O)c2O)[C@H](O)C=C[C@]23C[C@H]4C[C@H](O[C@@]4(C)C2)[C@H]31 | > 64 µg/mL | > 64 µg/mL | – | > 64 µg/mL | > 64 µg/mL | –
7 | CCO/N=C1\C=C[C@]23C[C@H]4C[C@H](O[C@@]4(C)C2)[C@H]3[C@]1(C)CCC(=O)Nc1c(O)ccc(C(=O)O)c1O | > 64 µg/mL | > 64 µg/mL | – | > 64 µg/mL | > 64 µg/mL | –
8 | C[C@]12C[C@@]34C=C/C(=N\NC(=O)c5ccccc5)[C@@](C)(CCC(=O)Nc5c(O)ccc(C(=O)O)c5O)[C@@H]3[C@H](C[C@@H]1C4)O2 | > 64 µg/mL | 32 µg/mL (≈ 57.2 µM) | – | 32 µg/mL (≈ 57.2 µM) | > 64 µg/mL | Stable
9 | C[C@]12C[C@]34C[C@H]1C[C@H](O2)[C@H]3[C@](C)(CCC(=O)Nc1c(O)ccc(C(=O)O)c1O)/C(=N/O)C[C@@H]4NO | > 64 µg/mL | 16 µg/mL (≈ 32.7 µM) | 16 µg/mL (≈ 32.7 µM) | 16 µg/mL (≈ 32.7 µM) | > 64 µg/mL | –
10 | C[C@]12C[C@@]34C=C/C(=N\NC(N)=O)[C@@](C)(CCC(=O)Nc5c(O)ccc(C(=O)O)c5O)[C@@H]3[C@H](C[C@@H]1C4)O2 | > 64 µg/mL | – | – | 8 µg/mL (≈ 16 µM) | > 64 µg/mL | –
11 | C[C@]12C[C@@]34C=C/C(=N\NC(=O)Cc5ccccc5)[C@@](C)(CCC(=O)Nc5c(O)ccc(C(=O)O)c5O)[C@@H]3[C@H](C[C@@H]1C4)O2 | > 64 µg/mL | 8 µg/mL (≈ 13.9 µM) | – | 8 µg/mL (≈ 13.9 µM) | > 64 µg/mL | Stable
12 | CO/N=C1\C=C[C@]23C[C@H]4C[C@H](O[C@@]4(C)C2)[C@H]3[C@]1(C)CCC(=O)Nc1c(O)ccc(C(=O)O)c1O | > 64 µg/mL | > 64 µg/mL | – | > 64 µg/mL | > 64 µg/mL | Stable
13 | CC(=O)N/N=C1\C=C[C@]23C[C@H]4C[C@H](O[C@@]4(C)C2)[C@H]3[C@]1(C)CCC(=O)Nc1c(O)ccc(C(=O)O)c1O | > 64 µg/mL | – | – | – | > 64 µg/mL | –
14 | C[C@]12C[C@@]34C=C/C(=N\c5ccccc5)[C@@](C)(CCC(=O)Nc5c(O)ccc(C(=O)O)c5O)[C@@H]3[C@H](C[C@@H]1C4)O2 | > 64 µg/mL | 2 µg/mL (≈ 3.87 µM) | 2 µg/mL (≈ 3.87 µM) | 1 µg/mL (≈ 1.94 µM) | > 64 µg/mL | Stable
15 | CC(C)(C)c1ccc(C(=O)N/N=C2\C=C[C@]34C[C@H]5C[C@H](O[C@@]5(C)C3)[C@H]4[C@]2(C)CCC(=O)Nc2c(O)ccc(C(=O)O)c2O)cc1 | > 64 µg/mL | 32 µg/mL (≈ 52 µM) | – | 16 µg/mL (≈ 26 µM) | > 64 µg/mL | –
16 | C[C@]1(CCC(=O)Nc2c(O)ccc(C(=O)O)c2O)[C@@H]2[C@@H]3C[C@@H]4C[C@@]2(CC[C@@H]1O)C[C@]4(C)O3 | > 64 µg/mL | > 64 µg/mL | – | > 64 µg/mL | > 64 µg/mL | –
17 | C[C@]12C[C@@]34C=C/C(=N\NC(N)=S)[C@@](C)(CCC(=O)Nc5c(O)ccc(C(=O)O)c5O)[C@@H]3[C@H](C[C@@H]1C4)O2 | > 64 µg/mL | – | – | 16 µg/mL (≈ 31.1 µM) | > 64 µg/mL | –
18 | C[C@@]1(CCC(=O)Nc2c(O)ccc(C(=O)O)c2O)[C@H](O)CC[C@]23C[C@H]4C[C@H](O[C@@]4(C)C2)[C@H]31 | > 64 µg/mL | > 64 µg/mL | – | > 64 µg/mL | > 64 µg/mL | –
19 | C[C@]12C[C@@]34C=C/C(=N\NC(=O)c5ccc(O)cc5)[C@@](C)(CCC(=O)Nc5c(O)ccc(C(=O)O)c5O)[C@@H]3[C@H](C[C@@H]1C4)O2 | > 64 µg/mL | – | – | – | > 64 µg/mL | –
20 | C[C@]1(CCC(=O)Nc2c(O)ccc(C(=O)O)c2O)[C@@H]2[C@@H]3C[C@@H]4C[C@@]2(C=C[C@@H]1O)C[C@]4(C)O3 | > 64 µg/mL | > 64 µg/mL | – | > 64 µg/mL | > 64 µg/mL | –
21 | CC(=O)NC[C@H]1CN(c2ccc(N3CCOCC3)c(F)c2)C(=O)O1 [LINEZOLID] | – | 1 µg/mL (≈ 2.96 µM) | 1 µg/mL (≈ 2.96 µM) | 1 µg/mL (≈ 2.96 µM) | – | –
22 | C=C1C[C@@]23C=CC(=O)[C@@](C)(CCC(=O)Nc4c(O)ccc(C(=O)O)c4O)[C@@H]2C[C@@H]1CC3 [PLATENCIN] | – | 1 µg/mL (≈ 2.35 µM) | 1 µg/mL (≈ 2.35 µM) | 1 µg/mL (≈ 2.35 µM) | – | –
